What was measured:
Experiment in all cases: -log10 GI50 (growth inhibition 50%) (-log10(M)); higher = more potent growth inhibition
184A1 = test system: 184A1
How it was run: (§1)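 A value carrying a < qualifier equals the top dose tested. Each compound was tested in triplicate on breast cancer cell lines for 72 hours at nine doses in 1:5 serial dilution, using a luminescence read-out against a time-zero plate. Nonlinear least squares fitting of a Gompertz curve gave GI50, the molar concentration causing the set level of growth inhibition, which is reported as its negative logarithm. The logarithm is base 10.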

BT474 = test system: BT474
How it was run: as §1

BT549 = test system: BT549
How it was run: as §1

HCC1187 = test system: HCC1187
How it was run: as §1

HCC1806 = test system: HCC1806
How it was run: as §1

HCC1954 = test system: HCC1954
How it was run: as §1

HCC3153 = test system: HCC3153
How it was run: as §1

HCC38 = test system: HCC38
How it was run: as §1

HCC70 = test system: HCC70
How it was run: as §1

HS578T = test system: HS578T
How it was run: as §1

MCF10A = test system: MCF10A
How it was run: as §1

MCF12A = test system: MCF12A
How it was run: as §1

MCF7 = test system: MCF7
How it was run: as §1

MDAMB134VI = test system: MDAMB134VI
How it was run: as §1

MDAMB157 = test system: MDAMB157
How it was run: as §1

MDAMB231 = test system: MDAMB231
How it was run: as §1

MDAMB415 = test system: MDAMB415
How it was run: as §1

184B5 = test system: 184B5
How it was run: as §1

BT20 = test system: BT20
How it was run: as §1

Structure (SMILES) | -log10 GI50 (BT474) | -log10 GI50 (BT549) | -log10 GI50 (HCC1187) | -log10 GI50 (HCC1806) | -log10 GI50 (HCC1954) | -log10 GI50 (HCC3153) | -log10 GI50 (HCC38) | -log10 GI50 (MCF7) | -log10 GI50 (MDAMB134VI) | -log10 GI50 (MDAMB157) | -log10 GI50 (MDAMB231) | -log10 GI50 (MDAMB415) | -log10 GI50 (BT20) | -log10 GI50 (184A1) | -log10 GI50 (HCC70) | -log10 GI50 (HS578T) | -log10 GI50 (MCF10A) | -log10 GI50 (MCF12A) | -log10 GI50 (184B5)
CCNCCCNC/C=C\CNCCCNCC | 4.24 | 4.73 | 3.16 | 3.88 | 6.52 | 5.24 | 5.26 | 3.46 | 2.97 | 2.96 | 4.75 | 4.17 |  | 3.2 | 5.9 | 4.54 | 4.2 | < 4 | 3.13
C=CCNC1=C2C[C@@H](C)C[C@H](OC)[C@H](O)[C@@H](C)/C=C(\C)[C@H](OC(N)=O)[C@@H](OC)/C=C\C=C(/C)C(=O)NC(=CC1=O)C2=O [17-AAG] | 5.84 | 7.51 | 5.29 | 7.05 | 7.5 | 6.82 | 7.24 | 6.25 | 7.42 |  | 6.11 | 7.45 |  | 7.93 | 6.62 | 6.96 | 7.4 | 7.48 | 7.56
CCc1c2c(nc3ccc(OC(=O)N4CCC(N5CCCCC5)CC4)cc13)-c1cc3c(c(=O)n1C2)COC(=O)[C@]3(O)CC [CPT-11] | 4.69 | 5.47 | 4.35 | 5.81 | 4.72 | 4.73 | 6.14 | 4.64 | 4.94 | 5.43 | 5.06 | 4.94 |  | 5.44 | 4.97 | 4.5 | 5.7 | 5.79 | 5.66
O=C(O)C1(C(=O)O)CCC1.[NH2-].[NH2-].[Pt+2] [Carboplatin] | 3.97 | 4.61 | 4.66 | 4.81 | 4.42 | 4.45 | 4.76 | 3.64 | 3.66 | 4.07 | 4.09 | 3.79 |  | 4.9 | 4.82 | 4.1 | 4.2 | 4.05 | 5.29
N.N.[Cl][Pt][Cl] [Cisplatin] | 4.42 | 5.6 | 5.67 | 5.68 | 5.29 | 5.12 | 5.78 | 4.66 | 3.73 | 4.62 | 4.65 | 3.84 |  | 5.53 | 5.8 | 5.16 | 5.1 | 4.18 | < 3.3
CCN(CC)C(=S)SSC(=S)N(CC)CC [Disulfiram] | < 4.18 | 6.89 | 6.49 |  | < 4.18 | 5.13 | 5.96 | 4.45 | 5.88 | 7.22 | 5.85 | 4.89 | 7.3 | 4.9 | < 4.18 | 5.44 | 4.93 | 4.97 | 4.93
CC(=O)O[C@@]12CO[C@@H]1C[C@H](O)[C@@]1(C)C(=O)[C@H](O)C3=C(C)[C@@H](OC(=O)[C@H](O)[C@@H](NC(=O)OC(C)(C)C)c4ccccc4)C[C@@](O)([C@@H](OC(=O)c4ccccc4)[C@H]21)C3(C)C [Docetaxel] | 8.2 | 8.46 | 8.61 | 8.62 | 8.78 | 8.01 | 8.69 | 7.91 | 7.81 | 8.76 | 8.66 | 8.48 |  | 6.13 | 8.49 | 8.76 | 8.63 | 8.59 | 8.39
O=c1[nH]cc(F)c(=O)[nH]1 [Fluorouracil] | 3.75 | 4.01 | 4.04 | 4.61 | 4.79 | 3.45 | 3.72 | 4.37 | 2.66 | 3.11 | 3.75 | 3.66 |  | 3.88 | 3.99 | 4.34 | 4.95 | 4.82 | < 1.72
COC1=C2C[C@@H](C)C[C@H](OC)[C@H](O)[C@@H](C)/C=C(\C)[C@H](OC(N)=O)[C@@H](OC)/C=C\C=C(/C)C(=O)NC(=CC1=O)C2=O [Geldanamycin] | 7.84 | 8.22 | 7.8 | 7.12 | 8.14 | 7.18 | 7.56 | 6.62 | 7.8 | 7.71 | 7.65 | 7.52 |  | 8.41 | 7.09 | 7.28 | 8.23 | 7.73 | 8.01
Nc1ccn([C@@H]2O[C@H](CO)[C@@H](O)C2(F)F)c(=O)n1 [Gemcitabine] | 4.88 | 8.08 | 5.07 | 8.72 | 4.51 | 7.19 | 8.17 | 4.77 | 2.85 |  | 5.93 | 6.05 |  | 6.16 | 4.58 | 5.66 | 7.7 | 7.17 | 6.14
O=C(O)C(=O)O.[NH-][C@@H]1CCCC[C@H]1[NH-].[Pt+2] [Oxaliplatin] | 4.73 | 5.81 | 5.85 | 5.45 | 5.95 | 5.19 |  | 5.31 | 3.54 | 4.8 | 4.9 | 4.53 |  | 5.89 | 5.38 | 4.74 | 5.41 | 5.75 | 5.57
CC(=O)O[C@H]1C(=O)[C@@]2(C)[C@H]([C@H](OC(=O)c3ccccc3)[C@]3(O)C[C@H](OC(=O)[C@H](O)[C@@H](NC(=O)c4ccccc4)c4ccccc4)C(C)=C1C3(C)C)[C@]1(OC(C)=O)CO[C@@H]1C[C@@H]2O [Paclitaxel] | 7.99 | 8.16 | 8.05 | 8.11 | 8.15 | 7.7 | 8.13 | 7.79 | 7.99 | 8.27 | 8.37 | 8.18 |  | 7.35 | 8.03 | 8.38 | 8.03 | 7.97 | 7.74
CC/C(=C(\c1ccccc1)c1ccc(OCCN(C)C)cc1)c1ccccc1 [Tamoxifen] | 5.62 | < 3.78 | 4.36 | 4.31 | 4.54 | < 3.78 | 4.28 | < 3.78 | 6.78 | 4.09 | < 3.78 | 4.47 |  | < 3.78 | < 3.78 | < 3.78 | 4.16 | 4.89 | 

Now from value to molecule, other results behind:

-log10 GI50 (BT474) | -log10 GI50 (BT549) | -log10 GI50 (HCC1187) | -log10 GI50 (HCC1806) | -log10 GI50 (HCC1954) | -log10 GI50 (HCC3153) | -log10 GI50 (HCC38) | -log10 GI50 (MCF7) | -log10 GI50 (MDAMB134VI) | -log10 GI50 (MDAMB157) | -log10 GI50 (MDAMB231) | -log10 GI50 (MDAMB415) | -log10 GI50 (BT20) | Structure (SMILES) | -log10 GI50 (184A1) | -log10 GI50 (HCC70) | -log10 GI50 (HS578T) | -log10 GI50 (MCF10A) | -log10 GI50 (MCF12A) | -log10 GI50 (184B5)
< 4.78 | 5.55 | < 4.78 | 6.39 | 6.79 | < 4.78 | < 4.78 | < 4.78 | 8.33 | 6.57 | 6.86 | 6.19 |  | CC(=O)Nc1cccc(-n2c(=O)n(C3CC3)c(=O)c3c(Nc4ccc(I)cc4F)n(C)c(=O)c(C)c32)c1 | 8.67 | 8.18 | 7.47 | 8.23 | 8.68 | 
5.46 | 7.3 | 7.52 | 7.34 | 7.6 | 7.22 | 7.32 | 5.74 | 6.52 | 7.48 | 5.91 | 7.08 |  | CC(C)Oc1ccc(C(=O)N[C@H](CNC(=O)CN(C)C)Cc2ccc(-c3cn4cccc([C@H](C)O)c4n3)cc2)cc1Cl | 5.1 | 7.68 | 7.32 | 7.29 | 6.1 | 5.17
5.2 | 5.71 | 7.95 | 5.16 | 5.57 | 4.97 | 6.53 | 5.06 | 5.59 | 6.23 | 5.47 | 5.76 |  | CCn1cc(-c2ccnc3[nH]c(-c4cccc(CN(C)C)c4)cc23)c(-c2ccc(NC(=O)N(C)C)cc2)n1 | 6.1 | 6.58 | 6.42 | 6.12 | 5.22 | 6.19
5.07 | 7.48 | 7.48 | 7.95 | 8.16 | 7.78 |  | 6.5 | 7.83 | 8.02 | 7.75 | 7.15 |  | C[C@@H](Oc1cc(-n2cnc3ccc(CN4CCN(C)CC4)cc32)sc1C(N)=O)c1ccccc1C(F)(F)F | 5.18 | 7.78 | 7.71 | 7.37 | 6.14 | 6.69
< 4.18 | < 4.48 |  | < 4.18 | < 4.48 | < 4.48 | < 4.48 | < 4.48 | < 4.18 | < 4.18 | < 4.18 | < 4.48 | < 4.48 | O=C(O)c1ccc(-c2c[nH]c3ncc(-c4ccccc4)cc23)cc1C1CCCC1 | 5.95 | < 4.18 |  | 5.55 | 5.13 | 5.97
6.8 | 5.73 | 6.84 | 5.82 | 6.68 | 5.54 | 6.11 | 5.56 | 6.33 | 6.17 | 5.21 | 6.26 |  | O=C1NC(=O)/C(=C/c2ccc3nccc(-c4ccncc4)c3c2)S1 | 7.78 | 6.75 | 5.74 | 6.57 | 6.38 | 
6.17 | 4.33 | < 3.78 | 4.63 | 5.64 | < 3.78 | 3.9 | 4.05 | 4.32 | 4.48 | < 3.78 | < 3.78 |  | COc1cc2ncnc(Nc3cccc(Cl)c3)c2cc1OC [AG1478] |  | 4.21 | 4.06 | 6.65 | 7.16 | 
6.51 | 6.94 | 7.3 | 6.79 | 6.74 | 6.48 | 7.14 | 6.11 | 5.95 | 6.49 | 6.44 | 6.52 |  | COc1cccc2c1C(=O)c1c(O)c3c(c(O)c1C2=O)C[C@@](O)(C(=O)CO)C[C@@H]3O[C@H]1C[C@H](N)[C@H](O)[C@H](C)O1 [Doxorubicin] | 6.95 | 5.36 | 6.31 | 6.79 | 7.34 | 
6.14 | 4.86 | 4.53 | 5.31 | 5.92 | < 4.48 | 4.75 | < 4.48 | 4.72 | 4.92 | < 4.48 | 5.09 |  | COc1cc2ncnc(Nc3ccc(F)c(Cl)c3)c2cc1OCCCN1CCOCC1 [Gefitinib] | < 4.48 | 5.05 | 4.76 | 6.17 | 6.17 | 7.43
5.6 | 7.62 | 6.51 | 7.69 | 6.55 | 6.68 | 8.61 | 5.89 | 6.94 | 6.4 | 5.67 | 6.73 |  | CC[C@@]1(O)C(=O)OCc2c1cc1n(c2=O)Cc2cc3c(CN(C)C)c(O)ccc3nc2-1 [Topotecan] | 6.88 | 6.3 | 4.8 | 7.23 | 7.58 | 7.16
7.32 | 8.02 | 7.64 | 7.97 | 6.24 | 7.29 | 7.94 | 7.85 | 7.95 | 7.89 | 8.39 | 7.73 |  | CCC1=C[C@@H]2CN(C1)Cc1c([nH]c3ccccc13)[C@@](C(=O)OC)(c1cc3c(cc1OC)N(C)[C@H]1[C@@](O)(C(=O)OC)[C@H](OC(C)=O)[C@]4(CC)C=CCN5CC[C@]31[C@@H]54)C2 [Vinorelbine] |  | 7.66 | 7.99 | 7.43 | 7.91 | 

— the supplement of paper PMC3937590
